The results in this text go back to patent US20140154735A1, “TUMOUR CELL AND TISSUE CULTURE” (CAPSANT NEUROTECHNOLOGIES LTD., priority 2011, published 2014).

One experiment has as its system LN18-eGFP clusters. Nature of the experiment: 5-ALA staining of GBM(LN18-eGFP)/brain co-cultures. Format: cell-based, human. To be noted: 100 μg/ml, 24 hours. The source says:
5-aminolevulinic acid (5-ALA) can be used to visualize tumourous tissue during neurosurgical procedures. The intraoperative use of this guiding method may reduce the tumour residual volume and prolong progression-free survival in patients suffering from brain tumours. GBM(LN18-eGFP)/brain co-cultures as prepared in Example 4 were stained with 5-ALA to see whether, as in human tumours, 5-ALA could specifically stain the tumour cells.
Aminolevulinic acid hydrochloride (ALA) (Sigma product number A3785) was solubilised in water to 10 mg/ml. For incubation with the cultures, it was diluted in the medium in the well to give a final concentration of 100 μg/ml and incubated with the cultures for 24 hours. The cultures were then examined microscopically using the CARV confocal system described for immunohistological analysis.

In experiment [1] the test system is A172. Nature of the experiment: 2D culture of A172 glioblastoma cells, growth inhibition. Format: cell-based. To be noted: Homo sapiens, A172, 2D culture. The method, then:
(§1) For the monolayer cultures of tumour cells alone (2D) LN-18_GFP cells were plated into 24 well plates at a concentration of 10^4 cells per well and after 2 hours treated with the same concentrations of TMZ as the organotypic co-cultures. Control organotypic co-cultures and 2D cultures were also monitored to compare normal growth of the tumour cells with that after addition of the TMZ. For analysis of fluorescence, images were taken on a Leica DM1L microscope using Leica application suite software. The images collected were analyzed using the BD IPLAB imaging software and the data analysed using Graphpad Prism5 software. The error bars are the standard error of the mean (SEM). 24 images were used for each data point.
(§2) Similarly to what has been observed with LN-18 cells, efficacy of Temozolomide was increased from 2.5 to 12 fold in brain-co-cultures. Thus, the co-cultures of the invention reflect the clinical situation more closely than 2D cultures for various glioblastoma cell lines.

The subject of experiment [2] is GL-15. The experiment in a line: 3D co-culture of GL-15 glioblastoma cells with brain cell matrix, growth inhibition. Format: cell-based. The note with it: GL-15, 3D co-culture with brain cell matrix. The protocol:
(§3) Each of these cell lines was eGFP-labeled and mixed with rat brain cells to form 3D organotypic co-cultures. As indicated by the eGFP signal, all brain-derived tumour cell lines grew and formed clusters of tumour cells within the co-cultures (FIGS. 3B, C and D) in a very similar way as LN18 cells.
(§4) Organotypic co-cultures were prepared as previously described. 2 hours after preparation, TMZ was added into the culture medium at various concentrations—see FIG. 6. The cultures are incubated in the culture medium+TMZ for up to 14 days with the compound being renewed as the media was changed. This allowed for monitoring of the effect of the TMZ over time.
as §2

Experiment [3] concerns A172. Nature of the experiment: 3D co-culture of A172 glioblastoma cells with brain cell matrix, growth inhibition. To be noted: Homo sapiens, A172, 3D co-culture with brain cell matrix. Format: cell-based. The protocol:
as §3, §4, §2

Experiment [4] has as its system GL-15. Nature of the experiment: 2D culture of GL-15 glioblastoma cells, growth inhibition. Format: cell-based. The note with it: GL-15, 2D culture. The protocol: as §1, §2
The subject of experiment [5] is LN-18 cells. The experiment in a line: 2D monolayer culture of LN-18-GFP tumour cells alone, fluorescence growth readout. It is filed as cell-based, human. To be noted: for pIC50: Homo sapiens, LN-18, 2D culture, growth inhibition. The protocol: (§5) Human glioblastoma tumour cell lines, LN-18 (ATCC #CRL2610) were cultured and were transfected with either green fluorescent protein (GFP) expressing plasmids or red fluorescent protein (RFP) expressing plasmids. Cells were cultured and plated onto 6 well plates, at 1×10^5 cells per well, grown overnight and checked to see ˜75% confluence. The cells were transfected with pEGFP-N3 (BD Biosciences cat no #6080-1) using Gene Juice (Novagen cat no #70967-EA) as per manufacturer's protocols. 24 hours after transfection, the cells were selected with Geneticin (GIBCO cat no #10131-019), a population of selected cells were used in the experiments. A population of selected cells were cultured over prolonged periods of time with occasional selection to maintain a population of transfected cells. The expression of fluorescent proteins by the tumour cells allows monitoring of the tumour cells for proliferation and morphological changes. The transfected tumour cells (LN-18) were treated with trypsin/EDTA (sigma#T4299) to remove them from the flask, resuspended in culture media, The viable cells were counted using trypan blue exclusion The suspension was centrifuged at 1000 rpm/3 minutes and the resultant cell pellet resuspended to 50,000 cells/μl.
as §1

Experiment [6] relates to U87. Nature of the experiment: 3D co-culture of U87 glioblastoma cells with brain cell matrix, growth inhibition. To be noted: Homo sapiens, U-87 MG, U87, 3D co-culture with brain cell matrix. Format: cell-based. The protocol:
as §3, §4, §2

Experiment [7] concerns U87. Nature of the experiment: 2D culture of U87 glioblastoma cells, growth inhibition. Format: cell-based. To be noted: Homo sapiens, U-87 MG; U87, 2D culture; read-out: IC50 TMZ 2D.
Experiment [8] has as its system LN-18 cells. The experiment in a line: 3D organotypic co-culture of LN-18-GFP tumour cells in rat brain cell matrix, treated at seeding. Format: cell-based, human. The method, then:
as §5
The organotypic cultures were produced by preparing dissociated cells from isolated rat cortex. P0 Wistar rats were sacrificed and the brains removed. The cortices were dissected into a Petri dish and chopped into small pieces and put into cold EBSS (GIBCO cat no #24010). The tissue pieces were then triturated very gently. The resultant cell suspension was filtered through a 100 μm mesh filter fitting into a 50 ml falcon tube. The suspension was centrifuged at 1000 rpm/3 minutes. The viable cells were counted using Trypan blue exclusion and the cell pellet resuspended to 50,000 cells/μl.
The transfected tumour cells and the rat primary cells prepared as explained in Examples 1 and 2 were mixed together to form a suspension of cells at 50,000 cells/μl.
5 μL of this mixed cell suspension was added to the top of a 0.4 micron Millipore culture insert (Millipore cat no # PICM0350) placed in lml cortical media (10% Hams F12, 20% FCS, 5% horse serum, 10 mM Hepes, 2 mM glutamine in DMEM) in a 6 well plate (NUNC). The plate was then incubated at 37° C. with 5% CO2 (FIG. 1A). During the first hours of this incubation the cells compact to form a denser culture by the removal of the liquid from the 5 μl cell suspension through capillary action via the semi-permeable membrane support (FIG. 1A).
Using these optimisation experiments the cells were mixed in the proportions of 95% rat brain cells and 5% LN-18 tumour cells both resuspended at 50,000 cells per μl.
as §4, §1

Experiment [9] has as its system established glioblastoma tumour cell clusters in GBM/brain co-cultures. Nature of the experiment: Tumour regression in established GBM/brain co-cultures, treatment started three days after seeding. Format: cell-based. The source says: Chemotherapies are given to patients with established tumours and are poorly effective.
Thus, also in terms of tumour regression, the properties of the co-cultures of the invention are representative of the clinical situation.

Molecules are shown by their SMILES. pIC50: −log10 of the molar value. Where only a bound is given, the exact number is not on record here.

Usually pIC50 stands for the IC50 on a negative log10 scale, so that one unit is a factor of ten.

`NCC(=O)CCC(=O)O` [5-ALA, 5-aminolevulinic acid]: the “staining of tumour cell clusters” value in the experiment on LN18-eGFP clusters (clusters of more than about 100 μm in diameter) is listed as “strong specific 5-ALA staining”; in the experiment with LN18-eGFP clusters (clusters smaller than about 100 μm in diameter), “stained more weakly”.

For the compound `Cn1nnc2c(C(N)=O)ncn2c1=O` [TMZ, Temozolomide], the pIC50 is around 4.60 with A172 [1] (A 172, read-out: IC50 TMZ 2D); around 4.70 with GL-15 [2] (read-out: IC50 TMZ 3D); around 5.30 with A172 [3] (A 172, read-out: IC50 TMZ 3D); below 4.30 in the experiment on GL-15 [4] (read-out: IC50 TMZ 2D); below 5.00 in the experiment on LN-18 cells [5] (read-out: IC50 TMZ 2D); around 6.00 with U87 [6] (read-out: IC50 TMZ 3D). The negative-log IC50 (pIC50) is around 4.92 in the experiment on U87 [7]; above 5.30 with LN-18 cells [8] (Homo sapiens, LN-18, LN-18, 3D co-culture with rat brain cells, growth inhibition, read-out: IC50 TMZ 3D); around 5.40 in the experiment with LN-18 cells [8] (LN-18, 3D co-culture with rat brain cells, growth inhibition, read-out: IC50 TMZ 3D).

As for `Nc1ccn([C@@H]2O[C@H](CO)[C@@H](O)[C@@H]2O)c(=O)n1` [Ara-C, Cytosine arabinoside], the “concentration showing growth inhibition (anti-proliferative activity)” value in the experiment with LN-18 cells [5] (2D cultures) turned out to be 100 nM. The “dose needed in 3D co-cultures relative to dose necessary in 2D cultures” value in the experiment on LN-18 cells [8] (3D versus 2D) is given as “ten times”. The “concentration required to reduce tumour cell proliferation” value in the experiment on LN-18 cells [8] (GBM/Brain co-cultures (3D)) stood at 1 µM. In addition, the “effect on GBM cells” value in the experiment with LN-18 cells [8] (GBM/Brain co-cultures (3D), 10 μM) is recorded as “effectively killed”.

`CC(=O)O[C@H]1C(=O)[C@@]2(C)[C@H]([C@H](OC(=O)c3ccccc3)[C@]3(O)C[C@H](OC(=O)[C@H](O)[C@@H](NC(=O)c4ccccc4)c4ccccc4)C(C)=C1C3(C)C)[C@]1(OC(C)=O)CO[C@@H]1C[C@@H]2O` [Taxol, Paclitaxel]: the pIC50 in the experiment with A172 [1] (A 172, read-out: IC50 Taxol 2D) is around 8.15; with GL-15 [2] (read-out: IC50 Taxol 3D), 7.00; in the experiment on A172 [3] (A 172, read-out: IC50 Taxol 3D), around 7.30; with GL-15 [4] (read-out: IC50 Taxol 2D) it was around 8.40; with LN-18 cells [5] (read-out: IC50 Taxol 2D), around 8.15; in the experiment on U87 [6] (read-out: IC50 Taxol 3D), around 7.22. For the same compound, the pIC50 in the experiment on LN-18 cells [8] (Homo sapiens, LN-18, read-out: IC50 Taxol 3D, LN-18, 3D co-culture with rat brain cells, growth inhibition) is around 7.60. For the same compound, the “effect on fluorescence intensity of established tumour cell clusters” value in [9] (taxol 25 nM) is listed as “no effect”; in experiment [9] (taxol 100 nM and 50 nM), “marginal effects”. Besides, in the experiment with LN-18 cells [5] (2D, Taxol 20 nM), the “effect on tumour cell number” value is recorded as “reduction in cell number to almost zero”. Also, the “effect on tumour cell number (average % fluorescence)” value with LN-18 cells [5] (2D, taxol 5 nM) is listed as “small but significant reduction in cell number”; in the experiment with LN-18 cells [5] (2D, taxol 20 and 50 nM), “no increase in cell number”. Further, the “effect on tumour cell growth” value in the experiment on LN-18 cells [8] (3D, taxol 25 nM, treatment started at seeding) is recorded as “cell growth was stopped”. Moreover, the “effect on cell growth versus control cultures (average % fluorescence)” value in the experiment with LN-18 cells [8] (3D, taxol 25, 50 and 100 nM) was “significant reduction in cell growth”. Also, the “concentration required to achieve tumour clusters shrinkage” value in the experiment on LN-18 cells [8] (3D, treatment started at seeding) came out at 100 nM.
